# Source: article PMC11093748, “De novo identification of CD4^+ T cell epitopes” (Nature Methods, 2024)
# Key:
# Test in all cases: Single SABR-II co-incubation, TCR analogs
# Assay type in all cases: cell-based, mouse
# Conditions in all cases: Fig 4B
# TCR 4 Analog 1 = system: TCR 4 Analog 1
# Description: (§1) We hypothesized that computational grouping of TCR specificities may reveal closely related TCRs that potentially recognize the same epitope(s), similar to the reverse epitope discovery approach (Fig. 4a). In the absence of experimental antigen discovery, grouping of TCRs is not informative of reactivity; however, we hypothesized that TCRs that co-clustered with SABR-II de-convoluted TCRs bind to the same antigens. To test this, we used three TCR-similarity search algorithms: GLIPH2 (refs. [38],[69]), tcrdist3 (ref. [37]) and CoNGA[39]. All three algorithms take slightly different approaches to group TCR sequences and generate clusters of TCR sequences that share high sequence similarity. In addition, CoNGA considers the transcriptional similarities among T cell clones. Using CoNGA, we defined TCR clusters for two TCRs, TCR4 and TCR6B, and identified analogs that slightly differed in sequences. Moreover, for TCR30, we were able to identify six TCR analogs that co-clustered in CoNGA analysis as well as GLIPH2. For TCR11, we first identified a gene expression (GEX) cluster that had ~50 TCRs that clustered based on gene expression. Using tcrdist3, we calculated the relative distance of each of these TCRs from TCR11 and selected the top seven clonotypes for expression. Together, 16 TCRs were identified as analogs of the experimentally de-convoluted TCRs (Extended Data Fig. 8). These TCRs were cloned and expressed in Jurkat cells. We performed co-incubation assays using single SABR-IIs and observed that 5 of 16 TCRs recognized the same epitopes as the parental TCRs (Fig. 4b). As a result, we were able to identify the cognate epitopes of five additional TCRs from our dataset that had otherwise not been selected for SABR-II screening based on our clonal expansion cutoff.
# (§2) Exported clonotypes were used as inputs for GLIPH2 (ref. [69]). For CoNGA, the merged dataset was exported as a .h5ad file and used as an input along with the CellRanger vdj output file. CoNGA analysis was performed using default parameters. Pairwise relative distances among TCRs were calculated using tcrdist3 (ref. [37]). CoNGA, tcrdist3 and GLIPH2 output files were searched manually for analogs that co-cluster with experimentally de-convoluted TCRs. Analogs were synthesized and cloned as described above.
# (§3) For SABR library screens, 3 × 10^6 NFAT–GFP Jurkat cells expressing the SABR library were labeled with CellTrace Violet (BioLegend) according to the manufacturer’s protocol before incubation with 3 × 10^6 Jurkat cells expressing the TCR of interest. These mixtures were incubated in a six-well plate for 16–20 h. Cells were stained with anti-CD69-APC-Cy7 where indicated (BioLegend) and the top 1–2% of GFP^+CD69^+ cells were sorted for genomic DNA extraction, indexing and sequencing (see below). Multiplexed assays were scaled on a per-TCR basis (for example 3 × 10^6 for each of three TCRs against 9 × 10^6 library cells). For single SABR assays, unless otherwise defined, 5 × 10^5 SABR expressing NFAT–GFP Jurkat cells (or 5KC cells) were labeled with CellTrace Violet (BioLegend) according to the manufacturer’s protocol before incubation with 5 × 10^5 TCR-expressing Jurkat cells (or 5KC cells) in a round-bottom 96-well plate for 16–20 h. Cells were stained with anti-CD69-APC-Cy7 when indicated and acquired on the Attune NxT flow cytometer (Thermo Fisher Scientific). All flow analysis was performed using FlowJo (BD). For Daudi cell co-culture, 1 × 10^6 Jurkat cells expressing the TCR of interest were incubated with 1 × 10^6 Daudi cells expressing a SABR of interest for 3 days. On day 3, cells were labeled with anti-RT1B-PE and anti-Fas-APC-Cy7 before being acquired on the Attune NxT flow cytometer.
# TCR 4 Analog 2 = system: TCR 4 Analog 2
# Description: as §1, §2, §3
# TCR 30 Analog 3 = system: TCR 30 Analog 3
# Description: as §1, §2, §3
# TCR 30 Analog 4 = system: TCR 30 Analog 4
# Description: as §1, §2, §3
# TCR 11 Analog 6 = system: TCR 11 Analog 6
# Description: as §1, §2, §3
# TCR 11 Analog 7 = system: TCR 11 Analog 7
# Description: as §1, §2, §3
# TCR 30 Analog 2 = system: TCR 30 Analog 2
# Description: as §1, §2, §3
# TCR 30 Analog 5 = system: TCR 30 Analog 5
# Description: as §1, §2, §3
# TCR 11 Analog 2 = system: TCR 11 Analog 2
# Description: as §1, §2, §3
# TCR 30 Analog 1 = system: TCR 30 Analog 1
# Description: as §1, §2, §3
# TCR 11 Analog 1 = system: TCR 11 Analog 1
# Description: as §1, §2, §3
# TCR 11 Analog 4 = system: TCR 11 Analog 4
# Description: as §1, §2, §3
# TCR 11 Analog 3 = system: TCR 11 Analog 3
# Description: as §1, §2, §3
# TCR 30 Analog 6 = system: TCR 30 Analog 6
# Description: as §1, §2, §3
# TCR 11 Analog 5 = system: TCR 11 Analog 5
# Description: as §1, §2, §3
sequence,measurement,setting,value
LQTLALNAARDP,%GFP+CD69+ cells of SABR-NFAT-GFP-Jurkat cells,TCR 4 Analog 1; technical replicate 1,1.53%
same,%GFP+CD69+ cells of SABR-NFAT-GFP-Jurkat cells,TCR 4 Analog 1; technical replicate 2,1.83%
same,%GFP+CD69+ cells of SABR-NFAT-GFP-Jurkat cells,TCR 4 Analog 2; technical replicate 1,1%
same,%GFP+CD69+ cells of SABR-NFAT-GFP-Jurkat cells,TCR 4 Analog 2; technical replicate 2,0.84%
SHLVEALYLVCGERG,%GFP+CD69+ cells of SABR-NFAT-GFP-Jurkat cells,TCR 30 Analog 3; replicate 1,1.16%
same,%GFP+CD69+ cells of SABR-NFAT-GFP-Jurkat cells,TCR 30 Analog 3; replicate 2,1.27%
same,%GFP+CD69+ cells of SABR-NFAT-GFP-Jurkat cells,TCR 30 Analog 3; replicate 3,1.1%
same,%GFP+CD69+ cells of SABR-NFAT-GFP-Jurkat cells,TCR 30 Analog 4; replicate 1,1.2%
same,%GFP+CD69+ cells of SABR-NFAT-GFP-Jurkat cells,TCR 30 Analog 4; replicate 2,1.13%
same,%GFP+CD69+ cells of SABR-NFAT-GFP-Jurkat cells,TCR 30 Analog 4; replicate 3,1.05%
same,%GFP+CD69+ cells of SABR-NFAT-GFP-Jurkat cells,TCR 11 Analog 6; technical replicate 1,1%
same,%GFP+CD69+ cells of SABR-NFAT-GFP-Jurkat cells,TCR 11 Analog 6; technical replicate 2,1.08%
same,%GFP+CD69+ cells of SABR-NFAT-GFP-Jurkat cells,TCR 11 Analog 7; technical replicate 1,0.78%
same,%GFP+CD69+ cells of SABR-NFAT-GFP-Jurkat cells,TCR 11 Analog 7; technical replicate 2,1.05%
same,%GFP+CD69+ cells of SABR-NFAT-GFP-Jurkat cells,TCR 30 Analog 2; replicate 1,19.2%
same,%GFP+CD69+ cells of SABR-NFAT-GFP-Jurkat cells,TCR 30 Analog 2; replicate 2,19%
same,%GFP+CD69+ cells of SABR-NFAT-GFP-Jurkat cells,TCR 30 Analog 2; replicate 3,20%
same,%GFP+CD69+ cells of SABR-NFAT-GFP-Jurkat cells,TCR 30 Analog 5; replicate 1,34.3%
same,%GFP+CD69+ cells of SABR-NFAT-GFP-Jurkat cells,TCR 30 Analog 5; replicate 2,35.1%
same,%GFP+CD69+ cells of SABR-NFAT-GFP-Jurkat cells,TCR 30 Analog 5; replicate 3,34.2%
same,%GFP+CD69+ cells of SABR-NFAT-GFP-Jurkat cells,TCR 11 Analog 2; technical replicate 1,17.2%
same,%GFP+CD69+ cells of SABR-NFAT-GFP-Jurkat cells,TCR 11 Analog 2; technical replicate 2,16.8%
same,%GFP+CD69+ cells of SABR-NFAT-GFP-Jurkat cells,TCR 30 Analog 1; replicate 1,3.25%
same,%GFP+CD69+ cells of SABR-NFAT-GFP-Jurkat cells,TCR 30 Analog 1; replicate 2,3.04%
same,%GFP+CD69+ cells of SABR-NFAT-GFP-Jurkat cells,TCR 30 Analog 1; replicate 3,3.1%
same,%GFP+CD69+ cells of SABR-NFAT-GFP-Jurkat cells,TCR 11 Analog 1; technical replicate 1,0.66%
same,%GFP+CD69+ cells of SABR-NFAT-GFP-Jurkat cells,TCR 11 Analog 1; technical replicate 2,0.81%
same,%GFP+CD69+ cells of SABR-NFAT-GFP-Jurkat cells,TCR 11 Analog 4; technical replicate 1,0.89%
same,%GFP+CD69+ cells of SABR-NFAT-GFP-Jurkat cells,TCR 11 Analog 4; technical replicate 2,0.88%
same,%GFP+CD69+ cells of SABR-NFAT-GFP-Jurkat cells,TCR 11 Analog 3; technical replicate 1,0.85%
same,%GFP+CD69+ cells of SABR-NFAT-GFP-Jurkat cells,TCR 11 Analog 3; technical replicate 2,1.04%
same,%GFP+CD69+ cells of SABR-NFAT-GFP-Jurkat cells,TCR 30 Analog 6; replicate 1,1.04%
same,%GFP+CD69+ cells of SABR-NFAT-GFP-Jurkat cells,TCR 30 Analog 6; replicate 2,1.01%
same,%GFP+CD69+ cells of SABR-NFAT-GFP-Jurkat cells,TCR 30 Analog 6; replicate 3,0.97%
same,%GFP+CD69+ cells of SABR-NFAT-GFP-Jurkat cells,TCR 11 Analog 5; technical replicate 1,20.3%
same,%GFP+CD69+ cells of SABR-NFAT-GFP-Jurkat cells,TCR 11 Analog 5; technical replicate 2,19.7%
